Molecular target: L-lactate dehydrogenase (Homo sapiens, UniProt V9HWB9)
Experiment: Inhibition of LDH (unknown origin) assessed as reduction in lactate production by cell-based assay

IC50, < 1000 nM:
NS(=O)(=O)c1ccc(Cc2c(-c3ccc(F)c(C4=CCC(F)(F)CC4)c3)nn(-c3nc(C(=O)O)cs3)c2CC2CC2)cc1F
CC1CC=C(c2cc(-c3nn(-c4nc(C(=O)O)cs4)c(CC4CC4)c3Cc3ccc(S(N)(=O)=O)c(F)c3)ccc2F)CC1 (stereo unspecified)
Cc1ccc(-c2cc(-c3nn(-c4nc(C(=O)O)cs4)c(CC4CC4)c3Cc3ccc(S(N)(=O)=O)c(F)c3)ccc2F)cc1F
CC1CCCC=C1c1cc(-c2nn(-c3nc(C(=O)O)cs3)c(CC3CC3)c2Cc2ccc(S(N)(=O)=O)c(F)c2)ccc1F (stereo unspecified)
Cc1ccc(/C=C/c2cccc(-c3nn(-c4nc(C(=O)O)cs4)c(CC4CC4)c3Cc3ccc(S(N)(=O)=O)c(F)c3)c2)s1
CC(=O)c1cc(-c2nn(-c3nc(C(=O)O)cs3)c(CC3CC3)c2Cc2ccc(S(N)(=O)=O)c(F)c2)ccc1F

Reference: ChEMBL document CHEMBL4251691, “Thiazole Derivatives as Inhibitors for the Treatment of Cancer Cells Resistant” (ACS Med Chem Lett, 2018)
